Laboratory results from US20070082872A1, “Indole-containing compounds with anti-tubulin and vascular targeting activity” (priority 1999, published 2007).

How the values were obtained:
[1] = system: MHEC-5T hemangioendothelioma tumor; test: Inhibition of tumor blood flow, Fluorescent Bead Assay; type: in vivo, mice; conditions: for % VAPM (vessel area per tumor tissue area as a percentage of the control): single i.p. injection, 24 hours post-treatment
Protocol: The antivascular effects of the indole phosphate prodrug Oxi-8007, was assessed in tumor-bearing mice using a Fluorescent Bead Assay. A MHEC-5T hemangioendothelioma tumor model was established by subcutaneous injection of 0.5×10^6 cultured transformed cell murine myocardial vascular endothelial cell line (“MHEC5-T”) cells into the right flank of Fox Chase CB-17 Severe Combined Immunodeficient (“SCID”) mice. When transplanted tumors reached a size of 500 mm^3 (a size without development of necrosis), the mice received a single intraperitoneal (i.p.) injection of saline control or compound at doses ranging from 3.2 to 25 mg/kg. At 24 hours post-treatment, mice were injected intravenously with 0.25 ml of diluted FluoSphere beads (1:6 in physiological saline) in the tail vein, sacrificed after 3 minutes, and tumor was excised for cryosectioning. Tumor cryosections at a thickness of 8 um were directly examined using quantitative fluorescent microscopy. Blood vessels were indicated by blue fluorescence from injected beads. For quantification, image analysis of 3 sections from three tumors treated in each group were examined and vascular shutdown was expressed as vessel area (mm^2) per tumor tissue area (mm^2) as a percentage of the control (“%VAPM”). The results as shown in Table 4 indicate a clear dose-dependent effect of the agent on tumor blood flow as indicated by the reduction in blood vessel area at 24 hours following administration of Oxi8007. Administration of a dose of 100 mg/kg of Oxi-8007 or higher was particularly effective, causing a >98% reduction in tumor vessel volume relative to the control. A time-course of the effect of OX08007 on tumor blood flow is illustrated in FIG. 14.
Additional compounds of the present invention were tested for antivascular effects at two dosages (100 mg/kg and 10 mg/kg) using the same Fluorescent Bead Assay as in the previous experiment.

[2] = system: DU-145 (prostate); test: In vitro growth inhibition (SRB), DU-145; type: cell-based, human; conditions: 48 hours incubation
Protocol: (§1) Newly prepared compounds were evaluated for cytotoxic activity against a variety of cell lines derived from human tumors using an assay system similar to the National Cancer Institute procedure previously described (Monks et al, J. Natl. Cancer Inst., 1991). Briefly, the cell suspensions, diluted according to the particular cell type and the expected target cell density (5,000-40,000 cells per well based on cell growth characteristics), were added by pipet (100 μl) to 96-well microtiter plates. Inoculates were allowed a preincubation time of 24-28 hours at 37° C. for stabilization. Incubation with the inhibitor compounds lasted for 48 hours in 5% CO2 atmosphere and 100% humidity. Determination of cell growth was performed by in situ fixation of cells, followed by staining with a protein-binding dye sulforhodamine B (SRB), which binds to the basic amino acids of cellular macromolecules. The solubilized stain was measured spectrophotometrically.
(§2) Several compounds were evaluated for cytotoxic activity against […] P388 leukemia cell lines. […] These and additional compounds were evaluated in terms of growth inhibitory activity against several other […] cancer cell lines including: central nervous system (“CNS”, SF-295), pancreas (BXPC-3), non-small cell lung cancer (“lung-NSC”, NCI-H460), breast (MCF-7), colon (KM20L2), ovarian (OVCAR-3), and prostate (DU-145). […]

[3] = system: MCF-7 (breast); test: In vitro growth inhibition (SRB), MCF-7; type: cell-based, human; conditions: 48 hours incubation
Protocol: as §1, §2

[4] = system: MDA-MB-231 cells; test: Tumor growth control in vivo, MDA-MB-231 human breast adenocarcinoma model; conditions: SCID mice, 25, 50 or 100 mg/kg daily i.p. for 5 consecutive days; effective dose printed as X mg/kg
Protocol: The antitumor activity of indole phosphate prodrug, Oxi-8007, was assessed in tumor-bearing mice by measuring its effects on tumor volume. A human breast adenocarcinoma model was established by subcutaneous injection of cultured MDA-MB-231 cells in Fox Chase CB-17 SCID mice. When the average tumor size reached 50-100 mm^3, mice were randomly divided into several groups (n=10) with no significant difference in body weight and tumor size. Mice were administered Oxi-8007 in saline carrier at doses of 25, 50 or 100 mg/kg by daily intraperitoneal (i.p.) injection for 5 consecutive days (Q1×5). Saline carrier only was used as the control treatment. On Day 3, 7, 10, 13, 17 and 23, tumors were excised from animals in each treatment group (n=2) and measured by width and length. Tumor volume was calculated according to the following formula: Length×Width^2×0.4. The dosage effects of Oxi-com 197 is illustrated in FIG. 15.

[5] = system: NCI-H460 (lung-NSC); test: In vitro growth inhibition (SRB), NCI-H460; type: cell-based, human; conditions: 48 hours incubation
Protocol: as §1, §2

[6] = system: SF-295 (CNS); test: In vitro growth inhibition (SRB), SF-295; type: cell-based, human; conditions: 48 hours incubation
Protocol: as §1, §2

[7] = system: KM20L2 (colon); test: In vitro growth inhibition (SRB), KM20L2; type: cell-based, human; conditions: 48 hours incubation
Protocol: as §1, §2

[8] = system: BXPC-3 (pancreas); test: In vitro growth inhibition (SRB), BXPC-3; type: cell-based, human; conditions: 48 hours incubation
Protocol: as §1, §2

COc1ccc2c(C(=O)c3cc(OC)c(OC)c(OC)c3)c(-c3ccc(OC)c(OP(=O)([O-])[O-])c3)[nH]c2c1.[Na+].[Na+] [Oxi-8007, 2-(3′-Disodiumphosphate-4′-methoxyphenyl)-3-(3″,4″,5″-trimethoxybenzoyl)-6-methoxyindole]
% VAPM (vessel area per tumor tissue area as a percentage of the control) ([1]; 50 mg/kg): 52% | % VAPM (vessel area per tumor tissue area as a percentage of the control) ([1]; 100 mg/kg): 2% | % VAPM (vessel area per tumor tissue area as a percentage of the control) ([1]; 200 mg/kg): 1% | reduction in tumor vessel volume relative to the control ([1]; dose of 100 mg/kg or higher, 24 hours): > 98% | GI50 for Cell Line DU-145 [2]: <1 ng/mL | GI50 for Cell Line MCF-7 [3]: 2.3 ng/mL | tumor growth (tumor volume) relative to control treatment [4]: significantly inhibited tumor growth | GI50 for Cell Line NCI-H460 [5]: 2.7 ng/mL | GI50 for Cell Line SF-295 [6]: 5.5 ng/mL | GI50 for Cell Line KM20L2 [7]: 4.3 ng/mL | GI50 for Cell Line BXPC-3 [8]: 46 ng/mL
